The text below walks through data of US20230095495A1, “SKIN CONDITIONING COMPOSITION WITH HIGH CONCENTRATION OF UREA TO BOOST THE SKINCARE ACTIVES” (L'OREAL, priority 2021, published 2023).

SMILES strings stand for the structures.

Data set [1] concerns stratum corneum. Description: In vitro stratum corneum comparison of ΔT by differential scanning calorimetry (DSC). The following applies: variation of INV #1 applied first without rinsing, then hydroxy-acid based peel moisturizer; compared to peel moisturizer alone. On the procedure: In studies, the effect of urea at various concentrations and using hydroxyethyl urea (HEU) was according to INV #1 (40% urea, 5% glycine, 0.7% triacetin, buffer) in which the amount and form of urea was varied. […] Studies were conducted with each of the tested compositions to evaluate effect of the compositions on the stratum corneum.
In Vitro Stratum Corneum Comparison of Δ T using differential scanning calorimetry (DSC) is used to characterize the stability of a protein or other biomolecule directly in its native form. It does this by measuring the heat change associated with the molecule's thermal denaturation when heated at a constant rate. Compositions were evaluated on SC samples according to the following procedure. Stratum corneum samples were equilibrated at 75% relative humidity (RH) overnight. Inventive and Comparative Compositions and control treatments applied on SC surface (0.1 g/sample) for 15 min in 75% RH. The SC surface was wiped clean and rinsed with DI water. Allow to dry in 75% RH overnight. The DSC profile was measured from 20° C. to 120° C. at 5° C./min.
As an initial step, each test composition was applied first to skin without rinsing, followed by application of a hydroxy-acid based peel composition in a moisturizer form.
Background: In DSC, transitions show as peaks or steps in heat flow.

For data set [2] the following is noted: acute oral toxicity, mutagenicity, skin irritation, skin sensitization, phototoxicity; cited from earlier work.

For `NC(=O)NCCO` [hydroxyethyl urea], the “desquamation evidenced by stratum corneum disorganization, with increased amounts” value in data set [1] was “increased desquamation”.
Take `NC(N)=O` [urea]: the “desquamation evidenced by stratum corneum disorganization, with increased amounts” value in data set [1] is recorded as “increased desquamation”.
For the compound `CC(c1ccccc1)c1ccc(O)cc1O` (stereo not drawn) [Phenylethyl resorcinol, phenylethyl resorcinol], the “adverse effects in basic toxicological tests” value in data set [2] is “has not shown adverse effects”.
